In ChEMBL document CHEMBL5352447, “Development of [1,2]oxazoloisoindoles tubulin polymerization inhibitors: Further chemical modifications and potential therapeutic effects against lymphomas” (Eur J Med Chem, 2022) one finds IC50, inhibition and Activity data, which are given here for 14 molecules.

Active and inactive are the calls of the source. No cut-off for these calls is given here.

In one series the test system is MCF7. Kind of series: Cytotoxicity against human MCF7 cells assessed as cell growth inhibition. It is filed as functional, cell-based.
A further series has as its target Tubulin. Kind of series: Inhibition of tubulin assembly (unknown origin). Format: protein-complex assay, Homo sapiens.
Another series has as its target Tubulin (Homo sapiens) (UniProt P68371+Q9H4B7+P0DPH7+P68366+Q13509+Q71U36+P04350+Q3ZCM7+P07437+P68363+Q9BQE3+Q6PEY2+Q13885+Q9BVA1+Q9BUF5). The experiment in a line: Inhibition of [3H]Colchicine binding to tubulin (unknown origin) at 5 uM relative to control. It is filed as protein-complex assay.
Series [1] concerns VL51. The experiment in a line: Antiproliferative activity against human VL51 cells assessed as proliferating cells at 1 uM incubated for 72 hrs by MTT assay relative to control. It is filed as functional. (Tetrazolium dyes change colour on reduction, which living cells bring about.)
Series [2] in a line: Antiproliferative activity against human MINO cells assessed as proliferating cells at 1 uM incubated for 72 hrs by MTT assay relative to control. Format: functional.
The nature of series [3]: Antiproliferative activity against human HBL1 cells assessed as proliferating cells at 1 uM incubated for 72 hrs by MTT assay relative to control. Format: functional.
Series [4] relates to SU-DHL10. The experiment in a line: Antiproliferative activity against human SU-DHL-10 cells assessed as proliferating cells at 1 uM incubated for 72 hrs by MTT assay relative to control. It is filed as functional.
Series [5] concerns VL51. Kind of series: Antiproliferative activity against human VL51 cells assessed as inhibition of cell proliferation incubated for 72 hrs by MTT assay. It is filed as functional, cell-based. The note with it: VL51, 72 h.
Series [6] in a line: Antiproliferative activity against human MINO cells assessed as inhibition of cell proliferation incubated for 72 hrs by MTT assay. Format: functional, cell-based.
A short description of series [7]: Antiproliferative activity against human HBL1 cells assessed as inhibition of cell proliferation incubated for 72 hrs by MTT assay. It is filed as functional, cell-based. As to conditions: HBL1, 72 h.
The test system of series [8] is SU-DHL10. The experiment in a line: Antiproliferative activity against human SU-DHL-10 cells assessed as inhibition of cell proliferation incubated for 72 hrs by MTT assay. Format: functional, cell-based. The note with it: SU-DHL10, 72 h.
Series [9] relates to VL51. The experiment in a line: Induction of cell cycle arrest in human VL51 cells assessed as accumulation at G2/M phase at 50 nM incubated for 24 to 72 hrs by […]. It is filed as functional. The note with it: time 24-72 hrs.
In series [10] the test system is MINO. The experiment in a line: Induction of cell cycle arrest in human MINO cells assessed as accumulation at G2/M phase at 50 nM incubated for 24 to 72 hrs by […]. As to conditions: time 24-72 hrs. It is filed as functional.
Series [11] concerns VL51. The experiment in a line: Induction of cell cycle arrest in human VL51 cells assessed as accumulation at subG0 phase at early time point at 50 to 500 nM incubated upto 72 hrs by […]. Format: functional. The note with it: dose 50-500 nM.
Series [12] deals with MINO. Kind of series: Induction of cell cycle arrest in human MINO cells assessed as accumulation at subG0 phase at early time point at 50 to 500 nM incubated upto 72 hrs by […]. The note with it: dose 50-500 nM. It is filed as functional.
Series [13] concerns VL51. The experiment in a line: Induction of apoptosis in human VL51 cells at 50 to 500 nM incubated for 24 to 72 hrs by annexin V-FITC/PI staining based analysis. It is filed as functional, cell-based. The note with it: dose 50-500 nM, time 24-72 hrs.
Series [14] relates to MINO. The experiment in a line: Induction of apoptosis in human MINO cells at 50 to 500 nM incubated for 24 to 72 hrs by annexin V-FITC/PI staining based analysis. Format: functional, cell-based. The note with it: dose 50-500 nM, time 24-72 hrs.
The subject of another series is PBMC. The experiment in a line: Induction of apoptosis in human PBMC cells at 500 nM incubated for 24 to 48 hrs by annexin V staining based analysis relative to control. It is filed as toxicity, cell-based. As to conditions: 0.5 µM, time 24-48 hrs.
Series [15] has as its system MINO. The experiment in a line: Upregulation of CENPA in human MINO cells at 100 nM incubated for 8 to 24 hrs by RNA sequencing analysis. It is filed as functional, cell-based. As to conditions: time 8-24 hrs.
The test system of series [16] is MINO. The experiment in a line: Upregulation of CCNB1 in human MINO cells at 100 nM incubated for 8 to 24 hrs by RNA sequencing analysis. Format: functional, cell-based. The note with it: time 8-24 hrs.
For series [17], the system named is MINO. The experiment in a line: Upregulation of CCNB2 in human MINO cells at 100 nM incubated for 8 to 24 hrs by RNA sequencing analysis. Format: functional, cell-based. The note with it: time 8-24 hrs.
Series [18] concerns MINO. Kind of series: Upregulation of AURKA in human MINO cells at 100 nM incubated for 8 to 24 hrs by RNA sequencing analysis. It is filed as functional, cell-based. As to conditions: time 8-24 hrs.
Series [19] has as its system MINO. Kind of series: Upregulation of PLK1 in human MINO cells at 100 nM incubated for 8 to 24 hrs by RNA sequencing analysis. It is filed as functional, cell-based. As to conditions: time 8-24 hrs.
Series [20] has as its system MINO. Kind of series: Upregulation of CENPE in human MINO cells at 100 nM incubated for 8 to 24 hrs by RNA sequencing analysis. As to conditions: time 8-24 hrs. It is filed as functional, cell-based.
The subject of series [21] is MINO. The experiment in a line: Upregulation of BIRC5 in human MINO cells at 100 nM incubated for 8 to 24 hrs by RNA sequencing analysis. It is filed as functional, cell-based. As to conditions: time 8-24 hrs.

In general, IC50 refers to the midpoint of a concentration-inhibition curve. Broadly, the inhibition is the share of the control response that was lost under treatment. The low end stands for a weak effect, the high end for a strong effect. Turning to `COc1ccc(Cn2cc3c(c2-c2ccccc2)CCc2cnoc2-3)cc1OC`, the IC50 was determined as 4500 nM in the series on MCF7 and 3400 nM against Tubulin. Also, the inhibition at Tubulin (Homo sapiens) was determined as 34%.

In the case of `COc1ccc(/C=C\c2cc(OC)c(OC)c(OC)c2)cc1O` [COMBRETASTATIN A4], in the series with MCF7, the IC50 was 18 nM.

`COc1ccc(Cn2cc3c(c2-c2ccccc2)CCc2cnoc2-3)cc1N`: the Activity with VL51 [1] is 37.6%; in series [2], 10.5%; in series [3], 27.6%; in the series with SU-DHL10 [4], 13%. The IC50 was 250 nM in the series on VL51 [5]; 230 nM in [6]; 270 nM in [7]; 260 nM in the series on SU-DHL10 [8]; 370 nM with MCF7; 1700 nM against Tubulin. This molecule displayed an inhibition on Tubulin (Homo sapiens) of 72%.

As to `COc1ccc(Cn2cc3c(c2-c2ccc(OC)cc2)CCc2cnoc2-3)cc1`, the Activity came out at 49.4% with VL51 [1], 29.9% in series [2], 57.1% in series [3] and 47.4% with SU-DHL10 [4]. The IC50 was 1100 nM in the series with VL51 [5]; 1100 nM in series [6]; 1200 nM in series [7]; 1700 nM with SU-DHL10 [8]; > 5000 nM in the series with MCF7; 2000 nM on Tubulin. The molecule further gave an inhibition at Tubulin (Homo sapiens) of 55%.

For `COc1ccc(Cn2cc3c(c2-c2cc(OC)c(OC)c(OC)c2)CCc2cnoc2-3)cc1`, the Activity was determined as 37.9% in the series on VL51 [1], 8.7% in series [2], 30.7% in [3] and 12.7% in the series with SU-DHL10 [4]. Also, the IC50 stood at 270 nM in the series on VL51 [5]; 370 nM in series [6]; 470 nM in series [7]; 500 nM in the series with SU-DHL10 [8]; 600 nM in the series with MCF7; 3200 nM against Tubulin. The inhibition on Tubulin (Homo sapiens) turned out to be 34%.

For `COc1ccc(Cn2cc3c(c2-c2ccccc2)CCc2cnoc2-3)cc1[N+](=O)[O-]`, the 50% inhibitory concentration (IC50) with MCF7 came out at 340 nM; against Tubulin, 1500 nM. The molecule also displayed an inhibition at Tubulin (Homo sapiens) of 55%.

As to `COc1cccc(Cn2cc3c(c2)-c2oncc2CC3)c1`, the Activity in the series on VL51 [1] turned out to be 44.7%; in [2] it was 8.9%; in series [3], 37.9%; with SU-DHL10 [4] it was 14%. Also, the half-inhibitory concentration (IC50) was determined as 1000 nM in the series on VL51 [5]; 700 nM in series [6]; 700 nM in [7]; 800 nM in the series with SU-DHL10 [8]; 550 nM in the series on MCF7; 5200 nM on Tubulin. This molecule had an inhibition on Tubulin (Homo sapiens) of 69%.

Regarding `COc1cc(Cn2cc3c(c2)-c2oncc2CC3)cc(OC)c1OC`, the Activity was found to be 28.1% in the series on VL51 [1]; 8.6% in series [2]; 7.3% in series [3]; 13.8% in the series on SU-DHL10 [4]; 15% in the series with PBMC. In addition, the IC50 in the series on VL51 [5] came out at 120 nM; in series [6] it was 70 nM; in series [7], 80 nM; with SU-DHL10 [8], 70 nM; in the series on MCF7 it was 210 nM; on Tubulin, 2300 nM. Also, the outcome with VL51 [9], in the series on MINO [10], with VL51 [11], with MINO [12], in the series with VL51 [13] and in the series with MINO [14] was Active. In addition, the inhibition at Tubulin (Homo sapiens) is 80%.

In the case of `COc1cc(Cn2cc3c(c2)-c2oncc2CC3)cc(OC)c1`, the Activity in the series on VL51 [1] is 38%; in series [2], 0.8%; in series [3] it was 7.1%; in the series with SU-DHL10 [4] it was 30.5%; in the series on PBMC, 15%. The IC50 with VL51 [5] turned out to be 40 nM; in series [6] it was 20 nM; in [7], 20 nM; with SU-DHL10 [8], 30 nM; with MCF7 it was 290 nM; against Tubulin, 2800 nM. The outcome in the series with VL51 [9], in the series on MINO [10], with VL51 [11], in the series with MINO [12], in the series on VL51 [13] and in the series with MINO [14] was Active. The outcome in the series with MINO [15], in the series with MINO [16], in the series on MINO [17], in the series on MINO [18], in the series on MINO [19] and in the series with MINO [20] was Active. For the same molecule, in the series on MINO [21], the result was Active. The same molecule displayed an inhibition at Tubulin (Homo sapiens) of 88%.

Consider `COc1ccc(Cn2cc3c(c2-c2cc(OC)c(OC)c(OC)c2)CCc2cnoc2-3)cc1N`, for which the Activity is 34.7% in the series on VL51 [1], 9.31% in series [2], 12.9% in series [3] and 12% with SU-DHL10 [4]. Besides, the IC50 in the series on VL51 [5] amounted to 100 nM; in series [6] it was 70 nM; in series [7], 90 nM; in the series on SU-DHL10 [8], 100 nM; in the series with MCF7 it was 240 nM; on Tubulin it was 1700 nM. The inhibition on Tubulin (Homo sapiens) was 57%.

Regarding `COc1ccc(Cn2cc3c(c2-c2ccccc2)CCc2c(CN4CCCC4)noc2-3)cc1`, the IC50 is > 5000 nM with MCF7 and 12000 nM at Tubulin.

For `COc1ccc(Cn2cc3c(c2-c2ccccc2)CCc2cnoc2-3)cc1`, the Activity in the series on VL51 [1] is reported as 40.9%; in series [2], 8.4%; in [3], 21.5%; in the series with SU-DHL10 [4], 13%. The IC50 in the series on VL51 [5] was determined as 270 nM; in series [6] it was 230 nM; in series [7], 250 nM; in the series with SU-DHL10 [8], 280 nM; with MCF7, 380 nM; on Tubulin it was 2100 nM. This molecule also gave an inhibition on Tubulin (Homo sapiens) of 77%.

As to `c1ccc(Cn2cc3c(c2-c2ccccc2)CCc2cnoc2-3)cc1`, the values for the IC50 with MCF7 and at Tubulin were > 5000 nM and 4600 nM, respectively. In addition, on Tubulin (Homo sapiens), the inhibition was 21%.

With `CCOC(=O)c1c2c(cn1Cc1ccc(OC)cc1)-c1oncc1CC2`, the figures for the IC50 in the series on MCF7 and on Tubulin were > 5000 nM and 8000 nM, respectively.
